Measured values taken from patent US20200325139A1, “NEW ANTIBIOTICS TARGETING MYCOBACTERIA” (priority 2017, published 2020).
Read-outs that look alike come from different tables or passages of the source.

How the values were obtained:
[1] = tested on: M. abscessus CIP104536 ΔblaMab; assay: microbe, parasite or virus in culture; type: cell-based; conditions: for MIC: Mycobacteroides abscessus
M. abscessus CIP104536 = assay: MIC of amoxicillin in presence or absence of DBOs, microdilution; type: cell-based; conditions: for MIC: Mycobacteroides abscessus; for MIC / MIC of amoxicillin: M. abscessus CIP104536, DBO at 15 μM, listed as None = amoxicillin alone; for Fold reduction in the MIC of amoxicillin: M. abscessus, DBO 15 μM
[2] = tested on: M. tuberculosis H37Rv ΔblaC; assay: microbe, parasite or virus in culture; type: cell-based; conditions: for MIC: Mycobacterium tuberculosis, H37RV
M. tuberculosis H37Rv = assay: microbe, parasite or virus in culture; type: cell-based; conditions: for MIC: Mycobacterium tuberculosis, H37RV
LdtMt2 = LdtMt2 (Mycobacterium tuberculosis, UniProt I6Y9J2); assay: Inhibition of L,D-transpeptidase by DBOs, residual nitrocefin hydrolysis; type: biochemical, M. tuberculosis; conditions: 260 min, Inhibitor/LdtMt2 molar ratio 20 (DBO 200 μM, enzyme 10 μM); 260 min at 37° C.; read-out: Residual activity of LdtMt2 following pre-incubation
BlaC = BlaC (Mycobacterium tuberculosis, UniProt P9WKD3); assay: Carbamoylation of β-lactamase by DBOs, nitrocefin spectrophotometry; type: biochemical; conditions: for Carbamoylation efficacy of β-lactamase BlaC: 20° C., nitrocefin 100 μM, MES pH 6.4, highest DBO concentration 100 μM
BlaMab = assay: as above; type: biochemical, Mycobacterium abscessus; conditions: for Carbamoylation efficacy of β-lactamase BlaMab: 20° C., nitrocefin 100 μM, MES pH 6.4
Ldtfm = assay: Inhibition of L,D-transpeptidase by DBOs, residual nitrocefin hydrolysis; type: biochemical, E. faecium; conditions: 260 min at 37° C.
[3] = read-out: MIC of amoxicillin against indicated strain
[4] = Inhibitor/Ldtfm molar ratio 1, enzyme 10 μM
[5] = Inhibitor/Ldtfm molar ratio 2.5, enzyme 10 μM
[6] = Inhibitor/Ldtfm molar ratio 5, enzyme 10 μM
[7] = Inhibitor/Ldtfm molar ratio 10, enzyme 10 μM
[8] = Inhibitor/Ldtfm molar ratio 20 (DBO 200 μM, enzyme 10 μM)

Chain of LdtMt2 (I6Y9J2 55-408): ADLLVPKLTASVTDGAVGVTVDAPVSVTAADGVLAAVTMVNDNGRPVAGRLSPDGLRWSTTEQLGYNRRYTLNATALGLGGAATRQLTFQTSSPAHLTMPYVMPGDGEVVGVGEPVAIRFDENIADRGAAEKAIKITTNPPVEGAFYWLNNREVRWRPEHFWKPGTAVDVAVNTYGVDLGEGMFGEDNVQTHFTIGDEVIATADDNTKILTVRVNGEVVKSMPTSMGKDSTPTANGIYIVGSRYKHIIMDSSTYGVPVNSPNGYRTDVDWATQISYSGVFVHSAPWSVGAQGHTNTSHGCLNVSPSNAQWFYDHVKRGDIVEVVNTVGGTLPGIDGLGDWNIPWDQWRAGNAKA
Chain of BlaC (P9WKD3 39-306): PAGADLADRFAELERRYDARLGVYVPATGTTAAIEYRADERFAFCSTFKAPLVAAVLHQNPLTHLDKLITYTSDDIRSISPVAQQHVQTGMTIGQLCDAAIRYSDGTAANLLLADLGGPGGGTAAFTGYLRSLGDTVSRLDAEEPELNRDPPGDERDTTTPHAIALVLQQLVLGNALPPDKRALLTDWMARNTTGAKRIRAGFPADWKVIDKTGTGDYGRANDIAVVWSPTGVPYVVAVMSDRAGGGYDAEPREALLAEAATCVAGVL

SMILES	remaining activity at 200 µM (LdtMt2)	Carbamoylation efficacy of β-lactamase BlaC (BlaC)	Fold reduction in the MIC of amoxicillin (M. abscessus CIP104536)	Carbamoylation efficacy of β-lactamase BlaMab (BlaMab)	Fold reduction in the MIC of amoxicillin (M. tuberculosis H37Rv)	Residual activity of Ldtfm following pre-incubation (Ldtfm; [4])	Residual activity of Ldtfm following pre-incubation (Ldtfm; [5])	Residual activity of Ldtfm following pre-incubation (Ldtfm; [6])	Residual activity of Ldtfm following pre-incubation (Ldtfm; [7])	Residual activity of Ldtfm following pre-incubation (Ldtfm; [8])	also measured
CC1(C)S[C@@H]2[C@H](NC(=O)[C@H](N)c3ccc(O)cc3)C(=O)N2[C@H]1C(=O)O [amoxicillin, reference compound]	–	–	–	–	–	–	–	–	–	–	MIC ([1]; CIP104536, read-out: MIC of amoxicillin): 4 µg/mL; MIC ([1]; CIP104536, read-out: MIC of amoxicillin against indicated strain): 4 µg/mL; MIC (M. abscessus CIP104536; Table 1, read-out: MIC of amoxicillin): > 256 µg/mL; MIC (M. abscessus CIP104536; Table 2, read-out: MIC of amoxicillin against indicated strain): > 256 µg/mL; MIC of amoxicillin (M. abscessus CIP104536; Table 1): >256 µg/mL; MIC ([2]; read-out: MIC of amoxicillin): 1 µg/mL; MIC [2, 3]: 1 µg/mL; MIC (M. tuberculosis H37Rv; read-out: MIC of amoxicillin): 128 µg/mL; MIC (M. tuberculosis H37Rv; [3]): 128 µg/mL
COCc1cn(C[C@@H]2CC[C@@H]3CN2C(=O)N3OS(=O)(=O)O)nn1 [Compound 1a.i.13]	41.7%	–	–	–	–	–	–	–	–	–	–
NC(=O)[C@@H]1CC[C@@H]2CN1C(=O)N2OS(=O)(=O)O [Avibactam, reference compound]	–	(2.4 ± 0.8) × 10^1 M^−1 s^−1	at least 16 fold	(1.7 ± 0.1) × 10^5 M^−1 s^−1	at least 16 fold	66.3%	36.4%	15.8%	3.4%	2.4%	Inhibition of the β-lactamase activity of BlaC (in words) (BlaC; nitrocefin as the substrate, tested up to 100 μM): poorly inhibited; Inhibition of the β-lactamase activity of BlaMab (in words) (BlaMab; nitrocefin as the substrate): most efficacious inhibition
C[Si](C)(C)c1cn(C[C@@H]2CC[C@@H]3CN2C(=O)N3OS(=O)(=O)O)nn1 [Compound 2a.i]	72.4%	<5 × 10^0 M^−1 s^−1	–	(6.2 ± 0.2) × 10^4 M^−1 s^−1	–	88.8%	82.7%	68.0%	50.7%	27.2%	–
O=C1N2C[C@@H](CC[C@H]2Cn2cc(-c3ccccc3)nn2)N1OS(=O)(=O)O [Compound 1a.i.16]	8.3%	–	–	–	–	–	–	–	–	–	–
O=C1N2C[C@@H](CC[C@H]2Cn2cc(-c3cccnc3)nn2)N1OS(=O)(=O)O [Compound 1a.i]	14.5%	<5 × 10^0 M^−1 s^−1	activity similar to that of avibactam	(2.2 ± 0.1) × 10^4 M^−1 s^−1	activity similar to that of avibactam	88.6%	76.1%	63.6%	34.3%	15.8%	MIC of amoxicillin ([1]; Table 1, M. abscessus CIP104536 ΔblaMab, DBO at 15 μM, listed as None = amoxicillin alone): 4 µg/mL; MIC of amoxicillin (M. abscessus CIP104536; Table 1): 16 µg/mL; MIC of amoxicillin [2]: 1 µg/mL; MIC of amoxicillin (M. tuberculosis H37Rv): 16 µg/mL
O=C1N2C[C@@H](CC[C@H]2Cn2cc(CN3CCOCC3)nn2)N1OS(=O)(=O)[O-].[Na+] [Compound 1a.i.11]	73.9%	<5 × 10^0 M^−1 s^−1	less active	(4.4 ± 0.2) × 10^3 M^−1 s^−1	less active	92.0%	83.9%	68.6%	51.8%	28.1%	–
O=C(O)CCc1cn(C[C@@H]2CC[C@@H]3CN2C(=O)N3OS(=O)(=O)O)nn1 [Compound 1a.i.14]	87.1%	–	–	–	–	–	–	–	–	–	–
